From PMC12207590, “Substrate Specificity of the Organic Cation Transporters MATE1 and MATE2K and Functional Overlap with OCT1 and OCT2” (Journal of Medicinal Chemistry, 2025)

Tests used:
[1] = target: MATE2K (Homo sapiens, UniProt Q86VL8); assay: Uptake ratio in MATE2K-overexpressing HEK293 cells vs empty vector (2.5 μM, 1 min, HPLC-MS/MS); format: cell-based; settings: 2.5 μM, 1 min
[2] = human; cited from earlier work
[3] = target: T1, MATE1 (Homo sapiens, UniProt Q96FL8); assay: Uptake ratio in MATE1-overexpressing HEK293 cells vs empty vector (2.5 μM, 1 min, HPLC-MS/MS); format: cell-based; settings: 2.5 μM, 1 min; for MATE1 ratio: fold uptake over empty vector
T1 sequence (Q96FL8 1-570): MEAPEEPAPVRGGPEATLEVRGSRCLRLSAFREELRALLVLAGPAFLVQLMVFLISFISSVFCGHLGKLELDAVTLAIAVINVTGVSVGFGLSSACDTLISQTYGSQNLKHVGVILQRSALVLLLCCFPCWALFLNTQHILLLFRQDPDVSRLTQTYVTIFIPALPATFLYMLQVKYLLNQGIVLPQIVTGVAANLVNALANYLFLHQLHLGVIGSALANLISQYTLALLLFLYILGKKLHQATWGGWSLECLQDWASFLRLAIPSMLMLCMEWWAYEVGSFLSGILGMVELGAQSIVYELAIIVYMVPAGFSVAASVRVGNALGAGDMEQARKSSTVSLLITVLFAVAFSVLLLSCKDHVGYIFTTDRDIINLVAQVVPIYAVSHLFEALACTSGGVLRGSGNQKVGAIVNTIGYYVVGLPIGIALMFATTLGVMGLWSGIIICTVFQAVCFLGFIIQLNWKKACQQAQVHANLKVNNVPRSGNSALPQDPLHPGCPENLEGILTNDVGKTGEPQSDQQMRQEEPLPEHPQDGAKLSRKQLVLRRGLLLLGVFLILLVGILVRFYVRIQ

[4] = system: renal MATE1; settings: 800 mg cimetidine; cited from earlier work

MATE2K, sequence (Q86VL8 1-566 isoform Q86VL8-3): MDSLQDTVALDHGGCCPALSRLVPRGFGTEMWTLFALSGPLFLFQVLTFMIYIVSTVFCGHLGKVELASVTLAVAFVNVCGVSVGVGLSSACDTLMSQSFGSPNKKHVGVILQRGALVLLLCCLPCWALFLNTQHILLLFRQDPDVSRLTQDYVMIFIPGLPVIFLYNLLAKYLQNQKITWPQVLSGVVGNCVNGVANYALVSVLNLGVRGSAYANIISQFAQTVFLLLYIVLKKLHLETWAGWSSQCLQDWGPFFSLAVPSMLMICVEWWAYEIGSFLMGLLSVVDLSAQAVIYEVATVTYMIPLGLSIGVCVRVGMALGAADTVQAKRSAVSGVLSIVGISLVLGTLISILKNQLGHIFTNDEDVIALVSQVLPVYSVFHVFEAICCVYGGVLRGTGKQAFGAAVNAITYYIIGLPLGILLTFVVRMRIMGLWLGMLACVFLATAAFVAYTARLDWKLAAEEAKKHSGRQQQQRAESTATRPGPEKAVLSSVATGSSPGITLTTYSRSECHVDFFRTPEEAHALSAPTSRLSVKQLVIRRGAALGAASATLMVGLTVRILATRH

CN/C(=N\CCSCc1nc[nH]c1C)NC#N [Cimetidine]
MATE2K ratio in this study ([1]; Table S1): 3.60
MATE2K ratio ([1]; fold uptake over empty vector): 3.60
MATE2 (uptake ratio) ([1]; mean ratio of uptake in MATE2K-overexpressing HEK293 cells vs empty vector): 3.6
eliminated unchanged via the kidneys [2]: more than 70%
MATE1 ratio in this study ([3]; Table S1): 11.52
MATE1 ratio [3]: 11.52
MATE1 ratio ([3]; listed as cimetidine): above 2
MATE1 (uptake ratio) ([3]; mean ratio of uptake in MATE1-overexpressing HEK293 cells vs empty vector): 11.52
inhibition of metformin elimination [4]: approximately 43%
